Laboratory results from patent publication US10106524B2, “2,3,4,5-tetrahydropyridin-6-amine and 3,4-dihydro-2H-pyrrol-5-amine compound inhibitors of beta-secretase” (Janssen Pharmaceutica NV, priority 2015, dated 2018).

Tests used:
[1] = test system: Abeta total produced and secreted by SKNBE2 cells expressing hAPP695; experiment: Cellular αLisa assay in SKNBE2 cells - Abeta total; format: cell-based; settings: Homo sapiens, incubated for 18 hours, read-out: Cellular αLisa assay in SKNBE2 cells Abeta total pIC50 (converted)
Protocol: (§1) Cellular αLisa Assay in SKNBE2 Cells
(§2) In two αLisa assays the levels of Abeta total and Abeta 1-42 produced and secreted into the medium of human neuroblastoma SKNBE2 cells are quantified. The assay is based on the human neuroblastoma SKNBE2 expressing the wild type Amyloid Precursor Protein (hAPP695). The compounds are diluted and added to these cells, incubated for 18 hours and then measurements of Abeta 1-42 and Abeta total are taken. Abeta total and Abeta 1-42 are measured by sandwich αLisa. αLisa is a sandwich assay using biotinylated antibody AbN/25 attached to streptavidin coated beads and antibody Ab4G8 or cAb42/26 conjugated acceptor beads for the detection of Abeta total and Abeta 1-42 respectively. In the presence of Abeta total or Abeta 1-42, the beads come into close proximity. The excitation of the donor beads provokes the release of singlet oxygen molecules that trigger a cascade of energy transfer in the acceptor beads, resulting in light emission. Light emission is measured after 1 hour incubation (excitation at […] and emission at 615 nm).
(§3) A best-fit curve is fitted by a minimum sum of squares method to the plot of % Controlmin versus compound concentration. From this an IC50 value (inhibitory concentration causing 50% inhibition of activity) can be obtained.

[2] = target: T1, recombinant BACE1 protein (Homo sapiens, UniProt P56817); experiment: BACE1 biochemical FRET based assay - Method 1; settings: BACE1 1 μg/ml, 120 minutes, 10 μm substrate, pH 5.0; read-out: Biochemical FRET based assay - Method 1 pIC50 (converted)
T1 construct: recombinant BACE1 protein in a final concentration of 1 μg/ml
T1 sequence (P56817 46-501): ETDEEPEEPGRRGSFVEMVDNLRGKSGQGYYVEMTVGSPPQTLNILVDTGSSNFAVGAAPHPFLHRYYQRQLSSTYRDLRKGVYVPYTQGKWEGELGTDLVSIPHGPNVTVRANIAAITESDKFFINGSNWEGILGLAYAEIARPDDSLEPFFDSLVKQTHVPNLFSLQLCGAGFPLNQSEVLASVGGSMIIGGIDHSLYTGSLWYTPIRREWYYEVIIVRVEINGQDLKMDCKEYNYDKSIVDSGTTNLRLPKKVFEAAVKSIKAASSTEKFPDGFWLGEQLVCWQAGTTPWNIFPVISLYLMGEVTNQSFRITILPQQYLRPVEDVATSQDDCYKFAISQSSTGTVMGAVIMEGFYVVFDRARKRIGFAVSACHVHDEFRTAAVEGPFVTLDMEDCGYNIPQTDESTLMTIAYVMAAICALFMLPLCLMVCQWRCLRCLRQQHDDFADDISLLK
Text: (§4) BACE1 Biochemical FRET Based Assay
(§5) This assay is a Fluorescence Resonance Energy Transfer Assay (FRET) based assay. The substrate for this assay is an APP derived 13 amino acids peptide that contains the ‘Swedish’ Lys-Met/Asn-Leu mutation of the amyloid precursor protein (APP) beta-secretase cleavage site. This substrate also contains two fluorophores: (7-methoxycoumarin-4-yl) acetic acid (Mca) is a fluorescent donor with excitation wavelength at 320 nm and emission at 405 nm and 2,4-Dinitrophenyl (Dnp) is a proprietary quencher acceptor. […] Upon cleavage by BACE1, the fluorophore Mca is separated from the quenching group Dnp, restoring the full fluorescence yield of the donor. The increase in fluorescence is linearly related to the rate of proteolysis.
Briefly in a 384-well format recombinant BACE1 protein in a final concentration of 1 μg/ml is incubated for 120 minutes at room temperature with 10 μm substrate in incubation buffer (40 mM Citrate buffer pH 5.0, 0.04% PEG, 4% DMSO) in the absence or presence of compound. Next the amount of proteolysis is directly measured by fluorescence measurement at T=0 and T=120 (excitation at 320 nm and emission at 405 nm). Results are expressed in RFU (Relative Fluorescence Units), as difference between T120 and T0.
as §3

[3] = target: T1, recombinant BACE1 protein; experiment: BACE1 biochemical FRET based assay - Method 2; settings: BACE1 0.04 μg/ml, 450 minutes, 20 μM substrate, pH 5.0; read-out: Biochemical FRET based assay- Method 2 pIC50 (converted)
Text: as §4, §5
Briefly in a 384-well format recombinant BACE1 protein in a final concentration of 0.04 μg/ml is incubated for 450 minutes at room temperature with 20 μM substrate in incubation buffer (50 mM Citrate buffer pH 5.0, 0.05% PEG) in the presence of compound or DMSO. Next the amount of proteolysis is directly measured by fluorescence measurement (excitation at 320 nm and emission at 405 nm) at different incubation times (0, 30, 60, 90, 120 and 450 min). For every experiment a time curve (every 30 min between 0 min and 120 min) is used to determine the time where we find the lowest basal signal of the high control. The signal at this time (Tx) is used to subtract from the signal at 450 min. Results are expressed in RFU, as difference between T450 and Tx.
as §3

[4] = test system: Abeta 1-42 produced and secreted by SKNBE2 cells expressing hAPP695; experiment: Cellular αLisa assay in SKNBE2 cells - Abeta 42; format: cell-based, human; settings: Homo sapiens, incubated for 18 hours, read-out: Cellular αLisa assay in SKNBE2 cells Abeta 42 pIC50 (converted)
Protocol: as §1, §2, §3

[5] = target: T2, recombinant BACE2 protein (Homo sapiens, UniProt Q9Y5Z0); experiment: BACE2 biochemical FRET based assay; settings: BACE2 0.4 μg/nil, 450 minutes, 10 μM substrate, pH 5.0; read-out: Biochemical FRET based assay pIC50 (BACE2) (converted)
T2 construct: recombinant BACE2 protein in a final concentration of 0.4 μg/nil
T2 sequence (Q9Y5Z0 63-518): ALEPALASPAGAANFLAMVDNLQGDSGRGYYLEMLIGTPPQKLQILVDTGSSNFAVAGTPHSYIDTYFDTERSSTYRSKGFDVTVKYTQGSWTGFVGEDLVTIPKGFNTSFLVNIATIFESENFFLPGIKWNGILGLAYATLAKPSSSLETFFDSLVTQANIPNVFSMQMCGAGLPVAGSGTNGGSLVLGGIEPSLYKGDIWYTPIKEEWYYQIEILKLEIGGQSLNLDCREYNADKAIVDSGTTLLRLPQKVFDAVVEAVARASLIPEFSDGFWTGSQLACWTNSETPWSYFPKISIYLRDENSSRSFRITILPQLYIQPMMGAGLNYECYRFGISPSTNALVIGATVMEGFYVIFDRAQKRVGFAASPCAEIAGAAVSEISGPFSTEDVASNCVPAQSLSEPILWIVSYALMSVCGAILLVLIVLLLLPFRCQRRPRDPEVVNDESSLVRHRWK
Text: BACE2 Biochemical FRET Based Assay
as §5, with “assay” for “assay is an APP derived 13 amino acids peptide that”, “the beta-secretase,” for “BACE1,”
Briefly in a 384-well format recombinant BACE2 protein in a final concentration of […] is incubated for 450 minutes at room temperature with 10 μM substrate in incubation buffer (50 mM Citrate buffer pH 5.0, 0.05% PEG, no DMSO) in the absence or presence of compound. Next the amount of proteolysis is directly measured by fluorescence measurement at T=0 and T=450 (excitation at 320 nm and emission at 405 nm). Results are expressed in RFU (Relative Fluorescence Units), as difference between T450 and T0.
as §3

| Compound | IC50 [1] [nM] | IC50 [2] [nM] | IC50 [3] [nM] | IC50 [4] [nM] | IC50 [5] [nM] |
| --- | --- | --- | --- | --- | --- |
| C[C@@]1(c2cccc(NC(=O)c3ncc(Cl)cc3F)c2)C[C@@H](C(F)(F)F)CC(N)=N1 [Compound 5, N-[3-[(2S,4R)-6-amino-2-methyl-4-(trifluoromethyl)-4,5-dihydro-3H-pyridin-2-yl]phenyl]-5-chloro-3-fluoro-pyridine-2-carboxamide] | 20.9 | 26.3 | 18.2 | 24 | 20.9 |
| C[C@@]1(c2cccc(NC(=O)c3ncc(Cl)cc3F)c2)C[C@H](C(F)(F)F)CC(N)=N1 [Compound 6, N-[3-[(2S,4S)-6-amino-2-methyl-4-(trifluoromethyl)-4,5-dihydro-3H-pyridin-2-yl]phenyl]-5-chloro-3-fluoro-pyridine-2-carboxamide] | 1860 | 4900 | 1620 | 2000 | 1150 |
| CC1(c2cc(-c3cncnc3)ccc2F)N=C(N)CC1C(F)(F)F (stereo not drawn) [Compound 14] | 8320 | – | > 10000 | 8910 | > 10000 |
| COc1cnc(C(=O)Nc2ccc(F)c(C3(C)N=C(N)CC3C(F)(F)F)c2)cn1 (racemic) [Compound 17, (±)-N-[3-[(2S*,3R*)-5-amino-2-methyl-3-(trifluoromethyl)-3,4-dihydropyrrol-2-yl]-4-fluoro-phenyl]-5-methoxy-pyrazine-2-carboxamide] | 178 | – | 871 | 170 | > 10000 |
| COCCOc1cnc(C(=O)Nc2ccc(F)c([C@]3(C)N=C(N)C[C@@H]3C(F)(F)F)c2)cn1 [Compound 29, N-[3-[(2R,3S)-5-amino-2-methyl-3-(trifluoromethyl)-3,4-dihydropyrrol-2-yl]-4-fluoro-phenyl]-5-(2-methoxyethoxy)pyrazine-2-carboxamide] | – | – | 447 | 151 | > 20000 |

Results, then the compound that gave them:

| IC50 [1] [nM] | IC50 [2] [nM] | IC50 [3] [nM] | IC50 [4] [nM] | IC50 [5] [nM] | Compound |
| --- | --- | --- | --- | --- | --- |
| 8320 | – | > 10000 | 8910 | > 10000 | C[C@@]1(c2cc(NC(=O)c3ccc(Cl)cn3)ccc2F)N=C(N)C[C@@H]1C(F)(F)F [Compound 20, N-[3-[(2R,3S)-5-amino-2-methyl-3-(trifluoromethyl)-3,4-dihydropyrrol-2-yl]-4-fluoro-phenyl]-5-chloro-pyridine-2-carboxamide] |
| 64.6 | – | 380 | 67.6 | 2190 | CC1(c2cc(NC(=O)c3ccc(C#N)cn3)ccc2F)N=C(N)CC1C(F)(F)F (racemic) [Compound 18, (+)-N-[3-[(2S*,3R*)-5-amino-2-methyl-3-(trifluoromethyl)-3,4-dihydropyrrol-2-yl]-4-fluoro-phenyl]-5-cyano-pyridine-2-carboxamide] |
| 2510 | 9770 | 6760 | 2290 | > 10000 | C[C@@]1(c2cccc(NC(=O)c3ccc(C#N)cn3)c2)C[C@H](C(F)(F)F)CC(N)=N1 [Compound 8, N-[3-[(2S,4S)-6-amino-2-methyl-4-(trifluoromethyl)-4,5-dihydro-3H-pyridin-2-yl]phenyl]-5-cyano-pyridine-2-carboxamide] |
| 81.3 | – | 302 | 61.7 | 692 | C[C@]1(c2cc(NC(=O)c3ccc(Cl)cn3)ccc2F)N=C(N)C[C@H]1C(F)(F)F [Compound 19, N-[3-[(2S,3R)-5-amino-2-methyl-3-(trifluoromethyl)-3,4-dihydropyrrol-2-yl]-4-fluoro-phenyl]-5-chloro-pyridine-2-carboxamide] |
| 263 | 1480 | 1020 | 295 | – | C[C@@]1(c2cccc(-c3cncnc3)c2)C[C@@H](C(F)(F)F)CC(N)=N1 [Compound 1, (4R,6S)-6-methyl-6-(3-pyrimidin-5-ylphenyl)-4-(trifluoromethyl)-3,4,5,6-tetrahydropyridin-2-amine] |
